Earlier results, collected in patent publication US11304990B2, “Use of known compounds—intracellular infections” (ISR IMMUNE SYSTEM REGULATION HOLDING AB (PUBL), priority 2017, dated 2022).

How the values were obtained:
CD4 T-lymphocyte = conditions: diabetes-prone BB rats exhibiting an AIDS-like lymphocyte profile
[1] = system: pituitary type I GnRH receptors

Q: With “pyroGlu-His-Trp-Ser-Tyr-Gly-Leu-Arg-Pro-Gly-NH2 [GnRH I, decapeptide gonadotropin releasing hormone]” as the substance, how does the “CD4 T-lymphocyte numbers” value (CD4 T-lymphocyte) read?
A: The value was “increased”.

Q: What about the “fold higher affinity, pituitary vs breast cancer cell receptors” value ([1]; central pituitary binding compared with breast cancer cells) of the same substance?
A: Its value is 1000 fold.

Q: What about the Kd ([1]; central pituitary binding, read-out: binding affinity (Kd)) of the same substance?
A: The Kd was 4.8 nM.
